Reference: paper PMC12772033, “A drought stress-responsive metabolite malate modulates stomatal responses through G-protein-dependent pathway in grapevine and Arabidopsis” (Molecular Horticulture, 2026)
Where a name gives a salt, the structure may show the parent alone.

What was measured:
[1] = molecular target: T1, VvSLAC1 (Vitis vinifera, UniProt A0ABY9BHH9, F440A); experiment: two-electrode voltage clamp, Xenopus oocytes; assay type: cell-based; conditions: activator of open-gate mutant
T1 construct: gene VitviT2T_002114; cDNA in pNB1u, cRNA expressed in Xenopus laevis oocytes; no tag mentioned; model trimmed 1-141 and 507-553
T1 sequence (A0ABY9BHH9 entry or part of it F440A): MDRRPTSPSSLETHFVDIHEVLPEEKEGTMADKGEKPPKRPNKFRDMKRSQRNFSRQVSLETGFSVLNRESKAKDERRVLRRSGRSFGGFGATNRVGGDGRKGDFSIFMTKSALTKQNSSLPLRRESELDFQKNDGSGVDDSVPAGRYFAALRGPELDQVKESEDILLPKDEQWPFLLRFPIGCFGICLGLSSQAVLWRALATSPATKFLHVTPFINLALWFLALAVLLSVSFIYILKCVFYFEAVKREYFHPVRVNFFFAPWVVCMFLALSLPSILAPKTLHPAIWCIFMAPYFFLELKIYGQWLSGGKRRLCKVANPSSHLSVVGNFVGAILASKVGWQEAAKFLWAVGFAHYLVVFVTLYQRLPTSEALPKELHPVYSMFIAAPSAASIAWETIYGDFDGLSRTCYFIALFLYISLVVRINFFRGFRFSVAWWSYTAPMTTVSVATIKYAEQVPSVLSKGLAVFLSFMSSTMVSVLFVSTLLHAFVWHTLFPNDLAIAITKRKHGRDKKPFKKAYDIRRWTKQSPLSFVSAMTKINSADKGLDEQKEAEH

[2] = molecular target: T1, VvSLAC1; experiment: two-electrode voltage clamp, ramp mode, Xenopus oocytes; assay type: cell-based; conditions: activator of open-gate mutant, pH 5.6, 1 mM LaCl3, ramp +60 to -120 mV
[3] = pH 5.6, 1 mM LaCl3, -120 mV gap-free and I-V steps

| Compound | relative current at 10 mM [1, 3] | other results |
| --- | --- | --- |
| O=C(O)CC(=O)C(=O)O [Oxal, oxalacetate] |  | relative current at 10 mM ([1]; pH 5.6, 1 mM LaCl3, -120 mV gap-free): Dicarboxylates, however, promoted the activity of VvSLAC1F440A. |
| O=C(O)CC(O)(CC(=O)O)C(=O)O [Cit, citrate] |  | current at 10 mM [2]: The metabolites other than monocarboxylates activated VvSLAC1F440A. |
| O=C(O)C[C@H](O)C(=O)O [Mal, malate] | Dicarboxylates, however, promoted the activity of VvSLAC1F440A. |  |
| O=C(O)/C=C/C(=O)O [Fum, fumarate] | Dicarboxylates, however, promoted the activity of VvSLAC1F440A. |  |
